Reference: patent US20150338423A1, “METHODS FOR DETERMINING RELATIVE BINDING ENERGY OF MONOMERS AND METHODS OF USING THE SAME” (SABIC Global Technologies B.V., priority 2014, published 2015)
Read-outs that look alike come from different tables or passages of the source.

Target: T1, (Homo sapiens, UniProt P03372)
T1 sequence (P03372 1-595): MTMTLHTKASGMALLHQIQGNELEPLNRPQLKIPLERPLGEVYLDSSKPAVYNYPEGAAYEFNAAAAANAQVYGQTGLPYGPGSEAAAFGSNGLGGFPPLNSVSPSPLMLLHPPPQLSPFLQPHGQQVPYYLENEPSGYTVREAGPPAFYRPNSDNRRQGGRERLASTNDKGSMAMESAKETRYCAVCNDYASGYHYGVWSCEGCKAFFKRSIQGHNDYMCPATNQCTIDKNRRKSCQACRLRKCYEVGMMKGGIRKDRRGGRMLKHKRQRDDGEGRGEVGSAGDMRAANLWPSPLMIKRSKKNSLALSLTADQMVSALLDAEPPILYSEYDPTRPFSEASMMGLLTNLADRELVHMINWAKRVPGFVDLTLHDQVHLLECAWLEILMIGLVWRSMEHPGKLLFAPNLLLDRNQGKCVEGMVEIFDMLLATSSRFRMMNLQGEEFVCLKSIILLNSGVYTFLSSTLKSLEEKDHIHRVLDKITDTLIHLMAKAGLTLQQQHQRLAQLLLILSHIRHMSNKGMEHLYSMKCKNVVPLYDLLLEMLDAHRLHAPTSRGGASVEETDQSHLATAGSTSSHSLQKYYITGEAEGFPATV
Assay: in vitro competitive binding assay (radio-ligand displacement), estradiol binding activity

[1] = Table 1, unsubstituted reference monomers, displacement of radio-ligand from ERR-α, read-out: IC50

Procedure: The (IC50) of a particular substance can be determined using conventional competition binding assays. In this type of assay, a single concentration of radioligand (such as an agonist) is used in every assay tube. The ligand is used at a low concentration, usually at or below its Kd value. The level of specific binding of the radioligand is then determined in the presence of a range of concentrations of other competing non-radioactive compounds (usually antagonists), in order to measure the potency with which they compete for the binding of the radioligand. Competition curves can also be computer-fitted to a logistic function as described under direct fit.
IC50 binding concentrations for the alpha in vitro estradiol receptors were tested. Four separate sets of tests were run using a standard competitive binding assay. Samples were dissolved in either ethanol or DMSO. The various compounds were then tested at up to seven different concentrations for each test compound. Each of those tests was run in triplicate. Tests were conducted by displacement of a radio-ligand. For each set of tests a 17P-estradiol control sample was run to ensure proper binding of the natural hormone under the test conditions. Specifically, the IC50 values described herein were determined from in-vitro experiments of the compound binding to ERR-α.

| IC50 [1] [µM] | SMILES | further results |
| --- | --- | --- |
|  | COc1cc(C(C)(C)c2ccc(O)c(OC)c2)ccc1O [Example 1A, 4,4′-(propane-2,2-diyl)bis(2-methoxyphenol)] | IC50 (Table 2, substituted monomers, displacement of radio-ligand from ERR-α, read-out: IC50): > 250 µM; estradiol binding activity (with the LBD cavity of ERR-α, in words): reduced or no detectable estradiol binding activity |
| 1.27 | Cc1cc(C2(c3ccc(O)c(C)c3)CCCCC2)ccc1O [Reference ID 2, 4,4′-(cyclohexane-1,1-diyl)bis(2-methylphenol)] |  |
|  | CC(C)(c1ccc(O)cc1)c1ccc(C(C)(C)c2ccc(O)cc2)cc1 [Reference ID 7, 4,4′-(1,4-phenylenebis(propane-2,2-diyl))diphenol] | IC50: 3.92 µM |
| 18.7 | COC(=O)CCC(C)(c1ccc(O)cc1)c1ccc(O)cc1 [Reference ID 10, Methyl 4,4-bis(4-hydroxyphenyl)pentanoate] |  |

| SMILES | IC50 [1] [µM] | further results |
| --- | --- | --- |
| CCC(CC)(c1ccc(O)cc1)c1ccc(O)cc1 [Reference ID 9, 4,4′-(pentane-3,3-diyl)diphenol] | 0.0056 |  |
